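Five compound concentrations were applied to cells in 96-well plates for 48 hours; endpoints were derived by simple linear interpolation of the resulting dose-response curve. Here, GI50 denotes the concentration required for 50% inhibition of growth. TGI is the concentration that stops growth completely.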
What was measured:
Assay in all cases: NCI tumour cell line growth inhibition, 48 h
A549 NSCLC = tested on: A549 NSCLC
K-562 leukemia = tested on: K-562 leukemia
OVCAR-3 ovarian = tested on: OVCAR-3 ovarian
OVCAR-8 ovarian = tested on: OVCAR-8 ovarian
RXF 393 renal = tested on: RXF 393 renal
SK-MEL-2 melanoma = tested on: SK-MEL-2 melanoma
SK-MEL-5 melanoma = tested on: SK-MEL-5 melanoma
SNB-19 CNS = tested on: SNB-19 CNS
TK-10 renal = tested on: TK-10 renal
UO-31 renal = tested on: UO-31 renal

| SMILES | TGI (A549 NSCLC) [µM] | TGI (K-562 leukemia) [µM] | TGI (OVCAR-3 ovarian) [µM] | TGI (OVCAR-8 ovarian) [µM] | TGI (RXF 393 renal) [µM] | TGI (SK-MEL-2 melanoma) [µM] | TGI (SK-MEL-5 melanoma) [µM] | TGI (SNB-19 CNS) [µM] | TGI (TK-10 renal) [µM] | TGI (UO-31 renal) [µM] | GI50 (A549 NSCLC) [µM] | GI50 (K-562 leukemia) [µM] | GI50 (OVCAR-3 ovarian) [µM] | GI50 (OVCAR-8 ovarian) [µM] | GI50 (RXF 393 renal) [µM] | GI50 (SK-MEL-2 melanoma) [µM] | GI50 (SK-MEL-5 melanoma) [µM] | GI50 (SNB-19 CNS) [µM] | GI50 (TK-10 renal) [µM] | GI50 (UO-31 renal) [µM] |
| --- | --- | --- | --- | --- | --- | --- | --- | --- | --- | --- | --- | --- | --- | --- | --- | --- | --- | --- | --- | --- |
| CC(=O)O[C@H]1CCC2[C@@H]3CC[C@]4(C)CC(=O)C=C[C@]4(C)C3CC[C@@]21C (some centres undefined) | 37.9 | > 100 | 31.6 | 34.2 | 67.7 | 38.7 | 28.3 | > 100 | > 100 | > 100 | – | – | – | – | – | – | – | – | – | – |
| O=C(O)CNS(=O)(=O)c1ccc(NC(=O)c2ccc([N+](=O)[O-])cc2)cc1 | > 100 | > 100 | > 100 | > 100 | > 100 | > 100 | > 100 | > 100 | > 100 | > 100 | – | – | – | – | – | – | – | – | – | – |
| CC/C=C\C[C@H](O)C/C=C1/C(=O)C=C[C@@H]1C/C=C\CCCC(=O)OC | 7.63 | 21.7 | 2.13 | 11.1 | 3.58 | 4.2 | 2.91 | 14 | 9.13 | 3.4 | 2.78 | 0.732 | 0.692 | 2.61 | 1.91 | 1.84 | 1.54 | 2.88 | 3.29 | 1.75 |
| CCCC(CCC)NCC(O)c1cc(-c2ccc(C(F)(F)F)cc2)nc(C(F)(F)F)c1 (centres undefined) | 3.28 | 3.8 | 3.38 | 3.68 | 2.82 | 3.92 | 3.1 | 3.42 | 3.44 | 3.13 | 1.79 | 1.93 | 1.93 | 1.83 | 1.47 | 2.27 | 1.73 | 1.79 | 1.98 | 1.58 |
| S=c1ssc(N2CCOCC2)c1Cl | > 100 | > 100 | > 100 | > 100 | > 100 | > 100 | 30 | > 100 | > 100 | > 100 | > 100 | 26.3 | 39.3 | > 100 | 36 | > 100 | 16.5 | > 100 | 16 | > 100 |
| COCC[C@H]1CCC/C=C/[C@@H]2C[C@H](O)C[C@H]2[C@H](O)/C=C/C(=O)O1 | > 100 | > 100 | 0.273 | > 100 | 0.0539 | 0.636 | 0.0319 | > 100 | 0.63 | – | 0.113 | 0.313 | 0.0505 | 0.0483 | 0.0219 | 0.177 | 0.0172 | 0.191 | 0.18 | 0.0563 |
| O=C(Nc1n[nH]c2cc(-c3ccccc3)ccc12)C1CC1 | > 25 | > 25 | 16.9 | > 25 | > 25 | > 25 | > 25 | > 25 | > 25 | > 25 | 11.6 | 1.42 | 5.34 | 14.5 | 7.91 | > 25 | 8.75 | > 19.8 | > 25 | 16.9 |
| CN(C)CCC1(C2=CCCC2)CC/C(=C\c2ccc(Cl)cc2)C1=O (centres undefined) | 26.9 | > 23.2 | 26.8 | 25.3 | 10.9 | 14.2 | 4.07 | 24.1 | 23.3 | 18.8 | – | – | – | – | – | – | – | – | – | – |
| CCCCCCCCCCCCCCCC(=O)OCC(C[As](=O)(O)O)OC(=O)CCCCCCCCCCCCCCC (centres undefined) | > 100 | > 100 | > 100 | > 100 | > 100 | > 100 | > 100 | > 100 | > 100 | > 100 | – | – | – | – | – | – | – | – | – | – |
| O=c1cc(NCC(O)CN2CCCC2)n(Cc2ccccc2)c(=O)n1Cc1ccccc1 (centres undefined) | > 100 | 60.5 | > 100 | > 100 | > 100 | > 100 | 32.2 | > 100 | > 100 | > 100 | > 100 | 25.2 | > 100 | > 100 | 46 | > 100 | 17.1 | > 100 | > 100 | 45.8 |
| Cc1cc2nc(C=C(C(F)(F)F)C(F)(F)F)oc2cc1C | > 10 | 5.1 | 4.35 | 6.68 | 4.92 | > 10 | > 10 | > 10 | 5.16 | > 10 | – | – | – | – | – | – | – | – | – | – |
| O=S(=O)(c1ccc(NC(=S)NC23CC4CC(CC(C4)C2)C3)cc1)N1CCCCC1 | > 100 | > 100 | 21.1 | > 100 | 6.6 | 7.39 | 3.31 | > 100 | 64.1 | > 100 | 3.07 | 3.6 | 3.51 | 3.22 | 2.37 | 3.29 | 1.75 | 4.02 | 3.27 | 2.82 |
| c1ccc(Sc2ccc(Cc3nc4cc5ccccc5cc4[nH]3)cc2)cc1 | > 61.4 | > 47.8 | 39.8 | > 92.1 | > 100 | > 100 | 18.4 | > 100 | 18 | > 100 | 2.33 | 0.279 | 8.34 | 7.46 | 21.2 | 53.6 | 2.88 | 8.89 | 0.456 | 20.7 |
| C=CCCCCC/C=C\[C@@H](O)C#CC#C/C=C/CO | > 100 | 37.5 | > 100 | 68.9 | > 100 | > 100 | > 100 | > 100 | > 100 | > 100 | > 100 | 18.5 | 41.7 | 25.1 | > 100 | > 100 | > 100 | > 100 | > 100 | > 100 |
| CCCCNC1CCCCC[C@H]1O (some centres undefined) | > 100 | > 100 | > 100 | > 100 | > 100 | > 100 | > 100 | > 100 | > 100 | > 100 | – | – | – | – | – | – | – | – | – | – |
| CCCCC(CC)COC(=O)C[N+](C)(C)CCOC(c1ccccc1)c1ccccc1 (centres undefined) | 38.9 | 11.6 | 3.64 | 17.5 | 3.34 | 4.13 | 3.1 | 3.76 | 17.6 | 27.3 | 17.8 | 3.23 | 1.79 | 4.02 | 1.48 | 1.95 | 1.73 | 1.85 | 4.26 | 12.4 |
| O=C1C2C3C=C4c5ccccc5N(c5ccccc5)C4(C2C(=O)N1c1ccc([N+](=O)[O-])cc1)[C@H]1C(=O)N(c2ccc([N+](=O)[O-])cc2)C(=O)[C@@H]31 (some centres undefined) | > 100 | > 100 | > 100 | > 100 | > 100 | > 100 | > 100 | > 100 | > 100 | > 100 | – | – | – | – | – | – | – | – | – | – |
| Cc1nnc(NS(=O)(=O)c2ccc(N=Nc3cc(N=Nc4ccc(S(=O)(=O)Nc5nnc(C)s5)cc4)c4c(NC(=O)C(Cl)Cl)cccc4c3OC(=O)C(Cl)Cl)cc2)s1 (tested in a mixture with another compound) | 60.2 | 77.8 | 55.2 | 43.7 | 55.9 | 64.1 | 75.8 | > 100 | 95.6 | > 100 | – | – | – | – | – | – | – | – | – | – |
| C=C(C)CCN[Si](c1ccccc1)(c1ccccc1)C(C)(C)C | > 100 | 63.2 | 32 | 36 | 32.4 | 29.2 | 36.9 | 49.2 | 68.3 | 26.9 | – | – | – | – | – | – | – | – | – | – |
| CCOC(=O)CCC(=O)C1c2cccc(O)c2C(=O)c2c(O)cc(C)cc21 (centres undefined) | 3.86 | 10.9 | 1.18 | 2.01 | 1.25 | 1.08 | 1.83 | 3.74 | 3.39 | 1.19 | – | – | – | – | – | – | – | – | – | – |
| CCOC(=O)C(=O)Nc1ccccc1CC | > 100 | > 100 | > 100 | > 100 | > 100 | > 100 | > 100 | > 100 | > 100 | > 100 | – | – | – | – | – | – | – | – | – | – |
| CC(C)c1ccc(-c2cc(-c3cn[nH]c3-c3ccccn3)ccn2)cc1 | > 25 | > 25 | > 25 | > 25 | > 25 | > 25 | > 16.6 | > 25 | > 25 | > 25 | 13.7 | 9.03 | 8.4 | 9.57 | > 18.5 | 9.52 | 6.65 | 20.5 | > 18.6 | 6.6 |
| CCOC(=O)C1CCN(S(=O)(=O)/N=C2/NC(=O)NC2=C(Cl)Cl)CC1 | 17.7 | 5.99 | 3.29 | 19.9 | 3.06 | 7.5 | 4.26 | 5.11 | > 100 | 4.02 | 4.82 | 1.82 | 1.77 | 3.76 | 1.61 | 2.37 | 1.98 | 1.84 | 1.25 | 1.73 |
| COc1ccc(C2=C(Cl)c3cc(OC)c(OC)cc3C2Cl)cc1 (centres undefined) | 36.5 | > 53.1 | 30.9 | 50.6 | 30.4 | 26.3 | 27.5 | 39.5 | 47.5 | 13.4 | – | – | – | – | – | – | – | – | – | – |
| Cn1cc(C2(C)CC(C)(C)c3c2n(C)c2ccccc32)c2ccccc21 (centres undefined) | > 100 | > 100 | > 100 | > 100 | > 100 | > 100 | > 100 | > 100 | > 100 | > 100 | – | – | – | – | – | – | – | – | – | – |
| CC(C)c1c(O)c(O)c2c(c1O)C(=O)C(O)=C1C(C)(C)CCC[C@@]12C | 14.3 | 9.69 | 16.2 | 10.2 | 9.24 | 13.9 | 10.8 | 22.1 | 15.1 | 7 | – | – | – | – | – | – | – | – | – | – |
| Clc1cc(Cl)c2ns[s+]c2c1Cl | > 100 | > 100 | > 100 | > 100 | > 100 | > 100 | > 100 | > 100 | > 100 | > 100 | – | – | – | – | – | – | – | – | – | – |
| Cc1cc(C(=O)Nc2ccc3cc(CN4CCOCC4)ccc3n2)c(C)n1-c1ccccc1 | 12.1 | > 55.3 | 6.72 | 5.43 | 7.01 | 5.89 | 0.799 | > 100 | 58.5 | 33.5 | 2.42 | 1.06 | 1.58 | 1.21 | 2.18 | 2.44 | 0.202 | 17.6 | 4.75 | 2.24 |
| C=C(C)[C@@H]1CC[C@]2(CO)CC[C@]3(C)[C@H](CC[C@@H]4[C@@]5(C)C=C(C#N)C(=O)C(C)(C)[C@@H]5CC[C@]43C)[C@@H]12 | 3.5 | > 100 | 2.73 | 5.24 | 2.76 | 4.59 | 2.52 | 4.08 | 6.06 | 2.77 | 1.56 | 2.2 | 1.27 | 1.88 | 1.13 | 1.91 | 1.2 | 1.58 | 2.09 | 1.05 |
| COc1ccc(C(=O)c2cc(OC)c(OC)c(OC)c2)cc1/C=C/C(=O)c1ccc(F)cc1 | > 100 | > 100 | 15.5 | 37.8 | 23.3 | 38.2 | 15.5 | 5.96 | 30.9 | 3.49 | 16.5 | 2.34 | 4.83 | 3.7 | 7.29 | 9.89 | 4.31 | 2.26 | 4.43 | 1.77 |
